Laboratory results from publication PMC8637440, “Structural Modifications Yield Novel Insights Into the Intriguing Pharmacodynamic Potential of Anti-inflammatory Nitro-Fatty Acids” (Frontiers in Pharmacology, 2021).

Target: T1, sEH (Homo sapiens, UniProt P34913)
T1 sequence (P34913 1-555): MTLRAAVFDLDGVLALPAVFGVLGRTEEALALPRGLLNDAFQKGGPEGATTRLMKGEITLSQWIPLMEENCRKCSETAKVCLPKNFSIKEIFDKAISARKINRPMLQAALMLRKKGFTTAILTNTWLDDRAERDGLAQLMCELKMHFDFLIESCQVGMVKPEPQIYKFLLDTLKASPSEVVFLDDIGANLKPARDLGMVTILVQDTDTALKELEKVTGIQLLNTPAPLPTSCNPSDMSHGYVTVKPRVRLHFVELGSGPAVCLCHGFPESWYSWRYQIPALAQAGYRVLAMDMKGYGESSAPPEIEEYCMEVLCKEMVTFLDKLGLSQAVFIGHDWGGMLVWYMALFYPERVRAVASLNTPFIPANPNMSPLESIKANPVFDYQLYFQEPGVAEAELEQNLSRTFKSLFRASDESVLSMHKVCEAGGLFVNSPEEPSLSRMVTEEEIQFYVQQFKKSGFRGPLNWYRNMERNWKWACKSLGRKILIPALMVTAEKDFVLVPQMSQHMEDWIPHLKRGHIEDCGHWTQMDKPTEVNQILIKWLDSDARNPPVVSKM
Type: biochemical
Design: purchased Cayman Chemicals #10011671
Conditions: 100 nM
Method: FIGURE 3 Effects of NFA on sEH activity. […] Data are the mean ± SEM of n = 3–7. […] The cells were lysed, and hydrolase activity was measured by Epoxy Fluor 7 lysis. […] Statistical significance was calculated by one-way ANOVA with Bonferroni post-test and multiple comparisons against the DMSO control.

## CCCCCCCC/C=C\CCCCCCCC(=O)O [OA, oleic acid, reference compound]
  inhibition of recombinant sEH: strong suppressive effect
